Several values for one entry are separate records, joined by “and”; a condition that tells them apart may be missing. Identical values can stand only once. Square brackets hold non-standard residues; d marks the D form. Peptide text beside a SMILES is read from it.
Legend:
[1] = Skin permeability, Franz Cell diffusion cell with artificial skin, Transdermal Diffusion Tester, BCA assay; type: in vitro ADME; details: for Average Permeation Rate After 1 Hour (%) / Average Permeation Rate After 24 Hours (%): 32° C., 1.0 mg/mL in PBS; for Average Permeation Rate After 1 Hour (%) / Papp at 1 h, 1 mg/mL: after 1 hour; for Papp at 1 h, 1 mg/mL: read-out: Average Permeability Coefficient (Kp) After 1 hour (converted)
Method: As used herein, the term “skin permeation rate” of a cyclic oligopeptide is measured using artificial skin (Start M, Merck), and refers to the percentage of the cyclic oligopeptide that penetrate the artificial skin after certain amount of time. For example, if 60% of the total amount of a cyclic oligopeptide of this disclosure has penetrated the artificial skin after 24 hours, then the skin permeation rate of the cyclic oligopeptide is 60% after 24 hours.
As used herein, the term “skin permeability coefficient (Kp)” refers to the rate at which the cyclic oligopeptide penetrates the skin, as measured using artificial skin (Start M, Merck). In some embodiments, permeability coefficient (Kp)(cm/hr) is calculated with the following equation:
[formula] wherein Q(mg) refers to the total amount of cyclic oligopeptide that pass through the artificial skin within a certain amount of time; A(cm^2) refers to the internal cross-section area of the artificial skin in a diffusion cell; T(hr) refers to the total amount of time of cyclic oligopeptide permeation; and ΔC(mg/mL) refers to the concentration difference of the cyclic oligopeptide between the two sides of the artificial skin. In some embodiments, the diffusion cell is a Franz Cell.
Skin permeability of the cyclic oligopeptides generated in Example 1 was measured using Transdermal Diffusion Tester (TK-12D, Shanghai Kai Kai Industrial Co Ltd) and artificial skin (Start M, Merck). Three parallel experimental groups were set up for each sample. The skin permeability of cyclic oligopeptides was evaluated by the following steps: • 1) 2.0 mg cyclic oligopeptide was weighed and dissolved in 100 μL DMSO. Three parallel experimental groups were set up for each cyclic oligopeptide. The cyclic oligopeptide-containing solution was then slowly added dropwise to 1900 μL 1×PBS solution and mixed evenly to prepare a PBS solution with a final concentration of 1.0 mg/mL cyclic polypeptide. • 2) A magnetron was inserted into a Franz Cell diffusion cell, and an artificial skin was sandwiched in the middle of the diffusion cell with the smooth side of the artificial skin facing up. The diffusion cell was then fixed with clamps after assembly. • 3) 7.75 ml 1×PBS solution were then added to the diffusion cell without generating bubbles in the diffusion cell. The sampling port of the diffusion cell was then sealed with parafilm to reduce evaporation. • 4) The temperature of a Transdermal Diffusion Tester was then set to 32° C., and the magneton speed was set to 180 r/min. • 5) The assembled diffusion cell was then put into the Transdermal Diffusion Tester and preheated for 5-10 mins. • 6) 400 μL of 1.0 mg/mL cyclic oligopeptide solution prepared in step 1) was then added to the upper chamber of the diffusion cell, making it evenly dispersed on the surface of the artificial skin without air bubbles. The top port of the diffusion cell was then covered with parafilm to reduce evaporation. • 7) Starting from the time of adding the cyclic oligopeptide solution, samples of about 0.5 mL of the receiving solution were taken at six time points, 1 h, 2 h, 4 h, 8 h, 12 h and 24 h, using a plastic dropper to take out the samples from the sampling port of the diffusion cell. 0.5 mL of 1×PBS solution was added into the diffusion cell to restore the initial volume of the receiving solution. When sampling, the diffusion cell was tilted appropriately to avoid the generation of bubbles. The samples were then numbered and store at −20° C. • 8) A BCA Assay (Micro BCA Protein Assay Kit, Thermo Scientific) was conducted to measure the concentration of cyclic oligopeptide in samples obtained in step 7) (Actual Concentration of the cyclic oligopeptide at the particular time point). Three parallel groups were used. The weight of cyclic oligopeptide in each sample obtained in step 7) equals to Actual Concentration×0.5 mL. • 9) Permeation rate of each cyclic oligopeptide at each time point was calculated according to the following equation: […]

Human IL-13 = Human IL-13 (Homo sapiens, UniProt P35225); experiment: Surface plasmon resonance (SPR) binding assay, BIAcore 8K plus, immobilized Fc-tagged IL-13; details: 25° C., human IL-13 with Fc-tag immobilized on CM5 chip, read-out: Binding Affinity (KD) for IL-13
Human IL-13, sequence (P35225 25-146): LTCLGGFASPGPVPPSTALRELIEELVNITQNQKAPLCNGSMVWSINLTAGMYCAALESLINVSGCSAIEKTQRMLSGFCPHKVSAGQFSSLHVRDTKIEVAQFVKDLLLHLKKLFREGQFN
Method: A SPR assay was conducted to determine the binding affinity of the cyclic oligopeptides generated in Example 1 for IL-13 using a BIAcore 8K plus instrument (GE Healthcare). Human IL-13 with an Fc-tag was immobilized onto the surfaces of Series S Sensor CM5 (GE Healthcare) chips in the range of 5000 resonance units (RU). The binding kinetics were performed at 25° C. with a flow rate of 30 μL/min. The cyclic oligopeptides were analyzed in running buffer comprising 20 mM PBS, 2.7 mM KCl, […], 0.0500 Surfactant P20, pH 7.4, 1% DMSO, starting at 100 μM with gradient of ten two-fold dilutions using solvent correction mode.
FIGS. 2C, 3C, 4C, 5C, 6C, 7C, 8C, 9C, 10C, 11C, and 12C provide SPR response curves for the cyclic oligopeptides generated in Example 1, wherein the x-axis represents time of reaction and y-axis represents altitude of response (Response Units).

FIG. 12D = experiment: FIG. 12D
Method: Table printed on a drawing sheet, FIG. 12D
The patent's description of the figure: FIG. 12A provides the MS spectrum for Compound 11. FIG. 12B provides the HPLC chromatogram for Compound 11. FIG. 12C provides SPR assay curves showing the binding affinity of Compound 11 for IL-13, the x-axis represents time of reaction and y-axis represents altitude of response (Response Units). FIG. 12D illustrates skin permeation rate of Compound 11 for up to 24 hours. FIG. 12E illustrates average permeability coefficient (Kp) of Compound 11 for 1, 2, 4, 8, 12 and 24 hours.
First reader's note: The substance name is taken from the legend of the plot printed above the table on the same sheet; the last column is the range (max minus min) of the three replicates.

FIG. 9D = experiment: FIG. 9D
Method: Table printed on a drawing sheet, FIG. 9D
The patent's description of the figure: FIG. 9A provides the MS spectrum for Compound 8. FIG. 9B provides the HPLC chromatogram for Compound 8. FIG. 9C provides SPR assay curves showing the binding affinity of Compound 8 for IL-13, the x-axis represents time of reaction and y-axis represents altitude of response (Response Units). FIG. 9D illustrates skin permeation rate of Compound 8 for up to 24 hours. FIG. 9E illustrates average permeability coefficient (Kp) of Compound 8 for 1, 2, 4, 8, 12 and 24 hours.
First reader's note: The substance name is taken from the legend of the plot printed above the table in the same figure; the values are three replicate permeation rates, their average and their range.

FIG. 10D = experiment: FIG. 10D
Method: Table printed on a drawing sheet, FIG. 10D
The patent's description of the figure: FIG. 10A provides the MS spectrum for Compound 9. FIG. 10B provides the HPLC chromatogram for Compound 9. FIG. 10C provides SPR assay curves showing the binding affinity of Compound 9 for IL-13, the x-axis represents time of reaction and y-axis represents altitude of response (Response Units). FIG. 10D illustrates skin permeation rate of Compound 9 for up to 24 hours. FIG. 10E illustrates average permeability coefficient (Kp) of Compound 9 for 1, 2, 4, 8, 12 and 24 hours.
First reader's note: The substance name is taken from the legend of the plot printed above the table; three replicate permeation values, their average and their range per time point.

FIG. 11D = experiment: FIG. 11D
Method: Table printed on a drawing sheet, FIG. 11D
The patent's description of the figure: FIG. 11A provides the MS spectrum for Compound 10. FIG. 11B provides the HPLC chromatogram for Compound 10. FIG. 11C provides SPR assay curves showing the binding affinity of Compound 10 for IL-13, the x-axis represents time of reaction and y-axis represents altitude of response (Response Units). FIG. 11D illustrates skin permeation rate of Compound 10 for up to 24 hours. FIG. 11E illustrates average permeability coefficient (Kp) of Compound 10 for 1, 2, 4, 8, 12 and 24 hours.
First reader's note: The substance name comes from the legend of the plot above the table; columns 2-4 are three replicate permeation measurements, followed by their average and range.

FIG. 8D = experiment: FIG. 8D
Method: Table printed on a drawing sheet, FIG. 8D
The patent's description of the figure: FIG. 8A provides the MS spectrum for Compound 7. FIG. 8B provides the HPLC chromatogram for Compound 7. FIG. 8C provides SPR assay curves showing the binding affinity of Compound 7 for IL-13, the x-axis represents time of reaction and y-axis represents altitude of response (Response Units). FIG. 8D illustrates skin permeation rate of Compound 7 for up to 24 hours. FIG. 8E illustrates average permeability coefficient (Kp) of Compound 7 for 1, 2, 4, 8, 12 and 24 hours.
First reader's note: The substance name Compound 7 comes from the legend of the plot printed above the table; the values are skin permeation over time in three replicates with their average and range.

Structure (SMILES)	Average Permeation Rate After 1 Hour (%) [1] [%]	Papp at 1 h, 1 mg/mL [1] [×10⁻⁶ cm/s]	Kd (Human IL-13) [µM]	Permeation Avg. (%) (FIG. 12D)	Permeation Avg. (%) (FIG. 9D)	Papp at 24 h, 1 mg/mL ([1]; after 24 hours, read-out: Average Permeability Coefficient (Kp) After 24 hours) [×10⁻⁶ cm/s]	Permeation Avg. (%) (FIG. 10D)	Permeation Avg. (%) (FIG. 11D)	Average Permeation Rate After 24 Hours (%) ([1]; after 24 hours)	Permeation Avg. (%) (FIG. 8D)
CC(C)C[C@@H]1NC(=O)[C@@H](CCCNC(=N)N)NC(=O)[C@@H]2CCCN2C(=O)[C@H](CCC(=O)O)NC(=O)[C@@H]([C@H](C)O)NC(=O)[C@H](Cc2c[nH]c3ccccc23)NC(=O)[C@@H](Cc2c[nH]c3ccccc23)NC1=O [Compound 9, D-Arg Leu D-Trp Trp D-Thr Glu Pro] (cyclo(EP[dR]L[dW]W[dT]))		14	337				31.10% and 41.93% and 48.23% and 55.09%			
N=C(N)NCCC[C@@H]1NC(=O)[C@H]2CCCN2C(=O)[C@@H](Cc2c[nH]c3ccccc23)NC(=O)[C@H]2CCCN2C(=O)[C@H](CS)NC(=O)[C@H](Cc2ccc(O)cc2)NC(=O)[C@H](CC(=O)O)NC1=O [Compound 10, Arg Asp Tyr Cys D-Pro D-Trp D-Pro] (cyclo(C[dP][dW][dP]RDY))	18.96	11.7	368					29.18% and 39.99% and 47.96% and 56.44%		
CC(C)C[C@H]1NC(=O)[C@@H]2CCCN2C(=O)[C@@H](Cc2ccccc2)NC(=O)[C@H](CCCNC(=N)N)NC(=O)[C@H]([C@@H](C)O)NC(=O)[C@H]2CCCN2C1=O [Compound 7, Thr Arg D-Phe Pro D-Leu D-Pro] (cyclo(P[dL][dP]TR[dF]))		15.2	85.1						38.84	28.31% and 31.36% and 33.66% and 36.74%

Now from value to compound, other results behind:

Average Permeation Rate After 1 Hour (%) [1] [%]	Papp at 1 h, 1 mg/mL [1] [×10⁻⁶ cm/s]	Kd (Human IL-13) [µM]	Permeation Avg. (%) (FIG. 12D)	Permeation Avg. (%) (FIG. 9D)	Papp at 24 h, 1 mg/mL ([1]; after 24 hours, read-out: Average Permeability Coefficient (Kp) After 24 hours) [×10⁻⁶ cm/s]	Permeation Avg. (%) (FIG. 10D)	Permeation Avg. (%) (FIG. 11D)	Structure (SMILES)	Average Permeation Rate After 24 Hours (%) ([1]; after 24 hours)	Permeation Avg. (%) (FIG. 8D)
11.77	7.22	622	15.61% and 19.18% and 21.74% and 23.90%					CC(C)C[C@@H]1NC(=O)[C@@H](C(C)C)NC(=O)[C@@H](Cc2c[nH]c3ccccc23)NC(=O)[C@@H](CC(C)C)NC(=O)[C@@H]2CCCN2C(=O)[C@H](C(C)C)NC(=O)[C@@H]2CCCN2C(=O)[C@H](CCCNC(=N)N)NC1=O [Compound 11, Val Pro D-Leu D-Trp D-Val Leu Arg Pro] (cyclo(LRPVP[dL][dW][dV]))		
12.44	7.39			17.57% and 23.24% and 27.76% and 32.33%	> 0.0278			CSCC[C@@H]1NC(=O)[C@H](Cc2c[nH]c3ccccc23)NC(=O)[C@@H]2CCCN2C(=O)[C@H](CCC(=O)O)NC(=O)[C@H](CCCNC(=N)N)NC(=O)[C@@H](CC(C)C)NC(=O)[C@@H]2CCCN2C1=O [Compound 8, D-Leu Arg Glu Pro Trp Met Pro] (cyclo(EPWMP[dL]R))	35.20	

Reference: patent US12180307B2, “Interleukin-13 binding cyclic oligopeptides and methods of use thereof” (B.A.I. LABORATORIES, LLC, priority 2022, dated 2024)
